The values below come from patent US20040072824A1, “Methods and compositions for the treatment of cancer” (priority 2001, published 2004).

Data set [1] concerns U937 cells. In words: Curative effects on palpable tumors, U937 cells in scid/scid mice. It counts as in vivo. As to the method: In this series of experiments, effects of various compounds of the present invention on tumor development were tested using two protocols. The first protocol is directed to the testing of curative effects of these compounds in different cell lines. In this protocol, cancerous cells are inoculated to the animals, and the inoculated animals were left without any further treatment until the development of tumors. As soon as the tumors became palable (4 mm^3), the compounds of this invention were administered daily to the animals. Two different cell lines, i.e., U937 and MDA-MB-231 (breast cancer line), were used for this protocol to inoculate scid/scid mice.

The test system of data set [2] is U937 cells. In words: Antineoplastic activity, U937 cells injected in scid/scid mice, treatment from day 1. It counts as in vivo. As to conditions: 100 mg/kg; six mice. As to the method: Ten million U937 cells were subcutaneously injected into scid/scid mice. One injection was carried out per each of the 6 mice tested per set. The excipient or the compounds tested were administered intraperitoneally on day 1, i.e., the day of U937 cell line inoculation, of the experiment. The excipients or compounds were administered once daily. The tumor sizes were measured on day 5, day 8, day 12, day 14 and day 19 after the injection.

A further data set concerns U937. It counts as in vivo. As to conditions: treatment from day 1, cells inoculated after more than 24 hours, daily administration. As to the method:
The second protocol was designed to test the preventive effects of the compounds of this invention on tumorigenesis. In this protocol, the animals have been treated with various compounds of the present invention on day 1. After more than 24 hours, tumoral cells were inoculated. The administration of the compounds of this invention was maintained daily. The cell line used for this test was U937.

Data set [3] relates to blastic cells from AML patients. The experiment in a line: Inhibition of viability of fresh leukemic cells (trypan blue exclusion). It counts as cell-based, human. As to conditions: Homo sapiens, day 3; for cytotoxicity at 10 µM: 10^-5 M; for cytotoxicity at 1 µM: 10^-6 M. The essentials:
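Blasts from AML samples 1 to 5 (least to most differentiated) were incubated with or without anti-histamine derivatives, with Polaramine as negative control. Viable counts by trypan blue exclusion at day 3, with Wright-Giemsa morphology. Values are % growth inhibition versus negative control.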

Data set [4] deals with K562, U937, MDA-DB231, BT20 and MCF7 cell lines. In words: Cytotoxic effects in multi-well plate, 6 days, ATP level (CellTiter-Glo). As to conditions: 2x10^-9 M to 2x10^-4 M. On the technique in general: Cellular ATP, detected with luciferase, serves as a proxy for viable cell number.
Where [5] appears, read: 72 h, MEAN over AML patients, read-out: In Vitro Percent Inhibition of Viability, MEAN.
Where [6] appears, read: 72 h, patient ID 3, FAB AML2, read-out: In Vitro Percent Inhibition of Viability.
[7] abbreviates: 72 h, patient ID 4, FAB AML2, read-out: In Vitro Percent Inhibition of Viability.
[8] abbreviates: 72 h, patient ID 5, FAB AML2, read-out: In Vitro Percent Inhibition of Viability.
Setting [9] is: 72 h, patient ID 10, FAB AML4, read-out: In Vitro Percent Inhibition of Viability.
Setting [10] is: 72 h, patient ID 11, FAB AML5, read-out: In Vitro Percent Inhibition of Viability.
Setting [11] is: 72 h, patient ID 13, FAB AML5, read-out: In Vitro Percent Inhibition of Viability.
Setting [12] is: 72 h, patient ID 14, FAB AML5, read-out: In Vitro Percent Inhibition of Viability.
The mark [13] stands for this setting: 72 h, patient ID 15, FAB AML5, read-out: In Vitro Percent Inhibition of Viability.
[14] abbreviates: AML1, 72 h, patient ID 1, FAB AML1, read-out: In Vitro Percent Inhibition of Viability.
[15] abbreviates: AML1, 72 h, patient ID 2, FAB AML1, read-out: In Vitro Percent Inhibition of Viability.
Setting [16] is: AML3, 72 h, patient ID 6, FAB AML3, read-out: In Vitro Percent Inhibition of Viability.
Setting [17] is: AML3, 72 h, patient ID 7, FAB AML3, read-out: In Vitro Percent Inhibition of Viability.
The mark [18] stands for this setting: AML3, 72 h, patient ID 8, FAB AML3, read-out: In Vitro Percent Inhibition of Viability.
Setting [19] is: AML3, 72 h, patient ID 9, FAB AML3, read-out: In Vitro Percent Inhibition of Viability.

Each structure is given as a SMILES string. Like-named read-outs stand apart in the source and are kept apart here.

Consider `Nc1ccn([C@@H]2O[C@H](CO)[C@@H](O)[C@@H]2O)c(=O)n1` [ARA-C, cytarabine], for which the tumor development entry with U937 cells [1] (positive control, treated once tumors palpable) is listed as “no tumor development”. In the data set on U937 cells [2], the “mice that developed a tumor” value is recorded as “none of the six”.
As to `CSc1ccc2c(c1)N(CCC1CCCCN1C)c1ccccc1S2` (stereo not drawn) [S60, thioridazine], the “tumor growth compared to the negative control” value with U937 is listed as “decrease in tumor growth”. For the same molecule, the tumor growth result in the data set with U937 cells [1] (daily administration once tumors palpable (4 mm^3)) is reported as “delay in the tumor growth”. Also, the cytotoxicity at 10 µM was found to be 53% in data set [3] (setting [5]); 91% in data set [3] (setting [6]); 42% in data set [3] (setting [7]); 51% in data set [3] (setting [8]); 48% in data set [3] (setting [9]); 43% in data set [3] (setting [10]). In addition, the cytotoxicity at 10 µM was determined as 88% in data set [3] (72 h, patient ID 12, FAB AML5, read-out: In Vitro Percent Inhibition of Viability); 62% in data set [3] (setting [11]); 15% in data set [3] (setting [12]); 27% in data set [3] (setting [13]); 42% in data set [3] (setting [14]); 13% in data set [3] (setting [15]). Besides, the cytotoxicity at 10 µM in data set [3] (setting [16]) was determined as 89%; in data set [3] (setting [17]) it was 95%; in data set [3] (setting [18]) it was 56%; in data set [3] (setting [19]), 38%. The cytotoxicity at 1 µM in data set [3] (setting [5]) was found to be 14%; in data set [3] (setting [6]), 12%; in data set [3] (setting [7]), 19%; in data set [3] (setting [8]), 35%; in data set [3] (setting [9]) it was 6%; in data set [3] (setting [10]) it was 39%. For the same molecule, the cytotoxicity at 1 µM in data set [3] (setting [11]) stood at 15%; in data set [3] (setting [12]), 25%; in data set [3] (setting [13]), 0%; in data set [3] (setting [14]) it was 8%; in data set [3] (setting [15]) it was 8%; in data set [3] (setting [16]), 13%. Moreover, the cytotoxicity at 1 µM is 12% in data set [3] (setting [17]), 0% in data set [3] (setting [18]) and 0% in data set [3] (setting [19]). Moreover, the cytotoxic effect group entry in data set [4] was “I”.
